{"source": "patent EP4631959A2", "about": "“NOVEL MINIGASTRIN-DERIVED CHOLECYSTOKININ 2 RECEPTOR BINDING MOLECULES FOR IMAGING AND TARGETED RADIOTHERAPY” (priority 2022, dated 2024)", "key": {"[1]": {"test": "n-Octanol-PBS distribution coefficient (logD7.4)", "assay_type": "physicochemical", "settings": "pH = 7.4, ^177Lu-labeled", "description": "Approximately 1 MBq of the labeled tracer was dissolved in 1 mL of a 1/1 mixture (v/v) of phosphate buffered saline (PBS, pH = 7.4) and n-octanol in an Eppendorf tube (1.5 mL). After vigorous mixing of the suspension for 3 min at rt, the vial was centrifuged at 9,000 rpm for 5 min (Biofuge 15, Heraeus Sepatech, Osterode, Germany) and 200 µL aliquots of both layers were measured in a γ-counter. The experiment was repeated at least five times."}, "CCK-2R": {"target": "T1, CCK-2R (Rattus norvegicus, UniProt P30553)", "T1 construct": "The CCK-2R expressing rat pancreatic tumor cells AR4-2J; host or cells: AR4-2J rat pancreatic tumor cells", "T1 sequence (P30553 1-452)": "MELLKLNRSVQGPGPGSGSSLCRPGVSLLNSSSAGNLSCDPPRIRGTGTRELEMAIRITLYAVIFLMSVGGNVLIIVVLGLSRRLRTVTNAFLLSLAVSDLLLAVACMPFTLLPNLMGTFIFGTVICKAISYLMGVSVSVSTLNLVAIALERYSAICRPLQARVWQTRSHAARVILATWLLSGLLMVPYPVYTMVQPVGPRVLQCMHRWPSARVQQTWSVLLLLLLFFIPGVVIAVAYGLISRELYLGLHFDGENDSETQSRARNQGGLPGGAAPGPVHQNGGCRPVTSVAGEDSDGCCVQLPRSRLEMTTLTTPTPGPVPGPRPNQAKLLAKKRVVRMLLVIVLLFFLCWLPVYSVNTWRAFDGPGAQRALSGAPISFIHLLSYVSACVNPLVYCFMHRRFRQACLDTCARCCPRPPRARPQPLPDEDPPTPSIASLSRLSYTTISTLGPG", "test": "Determination of IC50: CCK-2R affinity on AR4-2J cells, competition with [^177Lu]Lu-DOTA-PP-F11N", "assay_type": "binding", "settings": "for IC50: AR4-2J cells", "summary_of_the_method": "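Competitive displacement of 0.3 pmol/well [177Lu]Lu-DOTA-PP-F11N by compounds (10^-10 to 10^-4 M) on AR4-2J cells in BSA-supplemented medium, 3 h at 37 °C. Free label was collected from medium plus PBS rinse, and cell-bound label was recovered with 1 M NaOH, both measured by γ-counter. Each IC50 was determined twice, in triplicate.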"}, "[2]": {"settings": "read-out: IC50 [nM] (n = 3), ^natLu-labeled, ^natLu-labeled"}}, "note": "Where two headings read alike, the source gives them in different places. Starred links: 1 amine or outer side, 2 acyl side, 3 side chain; linkers in the order of their positions; H or OH if unused. Non-standard residues stand in square brackets, D forms with d. Residues, ends and D or L forms follow the SMILES beside them. *: point of attachment. DOTAGA = O=C(O)CN1CCN(CC(=O)O)CCN(C(CCC(=O)*)C(=O)O)CCN(CC(=O)O)CC1; Benzoyl(4-SiFtBu2) = CC(C)(C)[Si](F)(c1ccc(C(=O)*)cc1)C(C)(C)C; DOTA = O=C(O)CN1CCN(CC(=O)O)CCN(CC(=O)*)CCN(CC(=O)O)CC1; X4 = CC(C)(C)[Si](O)(c1ccc(C(=O)*)cc1)C(C)(C)C; d(γGlu) = O=C(O)[C@@H](CCC(=O)[*:2])N[*:1]; 1Nal = N[C@@H](Cc1cccc2ccccc12)C(=O)O; Hyp = O=C(O)[C@@H]1C[C@@H](O)CN1; NMeNle = CCCC[C@H](NC)C(=O)O; PEG4 = NCCOCCOCCOCCOCCC(=O)O; Nle = CCCC[C@H](N)C(=O)O; dDap = NC[C@@H](N)C(=O)O", "data": [{"smiles": "CCCC[C@H](NC(=O)[C@H](Cc1c[nH]c2ccccc12)NC(=O)CNC(=O)[C@H](Cc1ccc(O)cc1)NC(=O)[C@H](C)NC(=O)CC[C@@H](NC(=O)CC[C@@H](NC(=O)CC[C@@H](NC(=O)CC[C@@H](NC(=O)CC[C@@H](NC(=O)CC[C@@H](NC(=O)CN1CCN(CC(=O)O)CCN(CC(=O)O)CCN(CC(=O)O)CC1)C(=O)O)C(=O)O)C(=O)O)C(=O)O)C(=O)O)C(=O)O)C(=O)N[C@@H](CC(=O)O)C(=O)N[C@@H](Cc1ccccc1)C(N)=O", "note": "[DOTA-PP-γ-F11N, DOTA-γ-glu^1-γ-glu^2-γ-glu^3-γ-glu^4-γ-glu^5-γ-glu^6-Ala^7-Tyr^8-Gly^9-Trp^10-Nle^11-Asp^12-Phe^13-NH2, reference compound] ({DOTA-d(γGlu)-d(γGlu)-d(γGlu)-d(γGlu)-d(γGlu)-d(γGlu)}-AYGW[Nle]DF-NH2)", "values": [{"measurement": "logD7.4 (n ≥ 5), ^177Lu-labeled", "setting": "[1]", "value": "−4.38 ± 0.05"}, {"measurement": "IC50", "setting": "CCK-2R; references ^natLu-labeled, other peptides without chelator, read-out: IC50 [nM] (n = 3)", "value": "7.5 ± 0.5", "unit": "nM"}, {"measurement": "IC50 value, fold lower than [^natLu]Lu-DOTA-PP-F11N", "setting": "CCK-2R; ^natLu-labeled", "value": 1.7, "unit": "fold"}]}, {"smiles": "CCCC[C@@H](C(=O)N[C@@H](CC(=O)O)C(=O)N[C@@H](Cc1cccc2ccccc12)C(N)=O)N(C)C(=O)[C@H](Cc1c[nH]c2ccccc12)NC(=O)CCOCCOCCOCCOCCNC(=O)CC[C@@H](NC(=O)[C@@H]1C[C@@H](O)CN1C(=O)[C@@H]1C[C@@H](O)CN1C(=O)[C@@H]1C[C@@H](O)CN1C(=O)[C@@H]1C[C@@H](O)CN1C(=O)[C@@H]1C[C@@H](O)CN1C(=O)[C@@H]1C[C@@H](O)CN1C(=O)CC[C@@H](NC(=O)[C@@H](CNC(=O)c1ccc([Si](O)(C(C)(C)C)C(C)(C)C)cc1)NC(=O)CN1CCN(CC(=O)O)CCN(CC(=O)O)CCN(CC(=O)O)CC1)C(=O)O)C(=O)O", "note": "[DOTA-rhCCK-84.2, DOTA-dap(SiOH)-γ-glu-(Hyp)6-γ-glu-(PEG)3-Trp-(N-Me)Nle-Asp-1-Nal-NH2] ({DOTA}-[dDap](X4)[d(γGlu)][Hyp][Hyp][Hyp][Hyp][Hyp][Hyp][d(γGlu)][PEG4]W[NMeNle]D[1Nal]-NH2)", "values": [{"measurement": "logD7.4 (n ≥ 5), ^177Lu-labeled", "setting": "[1]", "value": "−2.21 ± 0.08"}, {"measurement": "IC50", "setting": "CCK-2R; [2]", "value": "13 ± 0.8", "unit": "nM"}]}, {"smiles": "CCCC[C@H](NC(=O)[C@H](Cc1c[nH]c2ccccc12)NC(=O)CNC(=O)[C@H](Cc1ccc(O)cc1)NC(=O)[C@H](C)NC(=O)[C@@H](CNC(=O)c1ccc([Si](F)(C(C)(C)C)C(C)(C)C)cc1)NC(=O)[C@@H](CCC(=O)O)NC(=O)[C@@H](CCC(=O)O)NC(=O)[C@@H](CCC(=O)O)NC(=O)[C@@H](CCC(=O)O)NC(=O)[C@@H](CCC(=O)O)NC(=O)[C@@H](CCC(=O)O)NC(=O)CCC(C(=O)O)N1CCN(CC(=O)O)CCN(CC(=O)O)CCN(CC(=O)O)CC1)C(=O)N[C@@H](CC(=O)O)C(=O)N[C@@H](Cc1ccccc1)C(N)=O", "note": "(some centres unmarked) [DOTAGA-MG-SiFA-5, DOTAGA-glu-[dap(SiFA)^6]F11N] ({DOTAGA}-[dE][dE][dE][dE][dE][dE][dDap](Benzoyl(4-SiFtBu2))AYGW[Nle]DF-NH2)", "values": [{"measurement": "logD7.4 (n ≥ 5), ^177Lu-labeled", "setting": "[1]", "value": "−1.71 ± 0.10"}, {"measurement": "IC50", "setting": "CCK-2R; [2]", "value": "629 ± 48", "unit": "nM"}]}, {"smiles": "CCCC[C@H](NC(=O)[C@H](Cc1c[nH]c2ccccc12)NC(=O)CNC(=O)[C@H](Cc1ccc(O)cc1)NC(=O)[C@H](C)NC(=O)[C@@H](CCC(=O)O)NC(=O)[C@@H](CNC(=O)c1ccc([Si](F)(C(C)(C)C)C(C)(C)C)cc1)NC(=O)[C@@H](CCC(=O)O)NC(=O)[C@@H](CCC(=O)O)NC(=O)[C@@H](CCC(=O)O)NC(=O)[C@@H](CCC(=O)O)NC(=O)[C@@H](CCC(=O)O)NC(=O)CCC(C(=O)O)N1CCN(CC(=O)O)CCN(CC(=O)O)CCN(CC(=O)O)CC1)C(=O)N[C@@H](CC(=O)O)C(=O)N[C@@H](Cc1ccccc1)C(N)=O", "note": "(some centres unmarked) [DOTAGA-MG-SiFA-6, DOTAGA-glu-[dap(SiFA)^5]F11N] ({DOTAGA}-[dE][dE][dE][dE][dE][dDap](Benzoyl(4-SiFtBu2))[dE]AYGW[Nle]DF-NH2)", "values": [{"measurement": "logD7.4 (n ≥ 5), ^177Lu-labeled", "setting": "[1]", "value": "−1.95 ± 0.09"}, {"measurement": "IC50", "setting": "CCK-2R; [2]", "value": "155 ± 18", "unit": "nM"}]}, {"smiles": "CCCC[C@H](NC(=O)[C@H](Cc1c[nH]c2ccccc12)NC(=O)CNC(=O)[C@H](Cc1ccc(O)cc1)NC(=O)[C@H](C)NC(=O)[C@@H](CCC(=O)O)NC(=O)[C@@H](CCC(=O)O)NC(=O)[C@@H](CNC(=O)c1ccc([Si](F)(C(C)(C)C)C(C)(C)C)cc1)NC(=O)[C@@H](CCC(=O)O)NC(=O)[C@@H](CCC(=O)O)NC(=O)[C@@H](CCC(=O)O)NC(=O)[C@@H](CCC(=O)O)NC(=O)CCC(C(=O)O)N1CCN(CC(=O)O)CCN(CC(=O)O)CCN(CC(=O)O)CC1)C(=O)N[C@@H](CC(=O)O)C(=O)N[C@@H](Cc1ccccc1)C(N)=O", "note": "(some centres unmarked) [DOTAGA-MG-SiFA-7, DOTAGA-glu-[dap(SiFA)^4]F11N] ({DOTAGA}-[dE][dE][dE][dE][dDap](Benzoyl(4-SiFtBu2))[dE][dE]AYGW[Nle]DF-NH2)", "values": [{"measurement": "logD7.4 (n ≥ 5), ^177Lu-labeled", "setting": "[1]", "value": "−2.03 ± 0.10"}, {"measurement": "IC50", "setting": "CCK-2R; [2]", "value": "156 ± 4", "unit": "nM"}]}, {"smiles": "CCCC[C@H](NC(=O)[C@H](Cc1c[nH]c2ccccc12)NC(=O)CNC(=O)[C@H](Cc1ccc(O)cc1)NC(=O)[C@H](C)NC(=O)[C@@H](CCC(=O)O)NC(=O)[C@@H](CCC(=O)O)NC(=O)[C@@H](CCC(=O)O)NC(=O)[C@@H](CNC(=O)c1ccc([Si](F)(C(C)(C)C)C(C)(C)C)cc1)NC(=O)[C@@H](CCC(=O)O)NC(=O)[C@@H](CCC(=O)O)NC(=O)[C@@H](CCC(=O)O)NC(=O)CCC(C(=O)O)N1CCN(CC(=O)O)CCN(CC(=O)O)CCN(CC(=O)O)CC1)C(=O)N[C@@H](CC(=O)O)C(=O)N[C@@H](Cc1ccccc1)C(N)=O", "note": "(some centres unmarked) [DOTAGA-MG-SiFA-8, DOTAGA-glu-[dap(SiFA)^3]F11N] ({DOTAGA}-[dE][dE][dE][dDap](Benzoyl(4-SiFtBu2))[dE][dE][dE]AYGW[Nle]DF-NH2)", "values": [{"measurement": "logD7.4 (n ≥ 5), ^177Lu-labeled", "setting": "[1]", "value": "−2.19 ± 0.08"}, {"measurement": "IC50", "setting": "CCK-2R; [2]", "value": "185 ± 14", "unit": "nM"}]}, {"smiles": "CCCC[C@H](NC(=O)[C@H](Cc1c[nH]c2ccccc12)NC(=O)CNC(=O)[C@H](Cc1ccc(O)cc1)NC(=O)[C@H](C)NC(=O)[C@@H](CCC(=O)O)NC(=O)[C@@H](CCC(=O)O)NC(=O)[C@@H](CCC(=O)O)NC(=O)[C@@H](CCC(=O)O)NC(=O)[C@@H](CNC(=O)c1ccc([Si](F)(C(C)(C)C)C(C)(C)C)cc1)NC(=O)[C@@H](CCC(=O)O)NC(=O)[C@@H](CCC(=O)O)NC(=O)CCC(C(=O)O)N1CCN(CC(=O)O)CCN(CC(=O)O)CCN(CC(=O)O)CC1)C(=O)N[C@@H](CC(=O)O)C(=O)N[C@@H](Cc1ccccc1)C(N)=O", "note": "(some centres unmarked) [DOTAGA-MG-SiFA-9, DOTAGA-glu-[dap(SiFA)^2]F11N] ({DOTAGA}-[dE][dE][dDap](Benzoyl(4-SiFtBu2))[dE][dE][dE][dE]AYGW[Nle]DF-NH2)", "values": [{"measurement": "logD7.4 (n ≥ 5), ^177Lu-labeled", "setting": "[1]", "value": "−2.67 ± 0.05"}, {"measurement": "IC50", "setting": "CCK-2R; [2]", "value": "90 ± 2.3", "unit": "nM"}]}, {"smiles": "CCCC[C@H](NC(=O)[C@H](Cc1c[nH]c2ccccc12)NC(=O)CNC(=O)[C@H](Cc1ccc(O)cc1)NC(=O)[C@H](C)NC(=O)[C@@H](CCC(=O)O)NC(=O)[C@@H](CCC(=O)O)NC(=O)[C@@H](CCC(=O)O)NC(=O)[C@@H](CCC(=O)O)NC(=O)[C@@H](CCC(=O)O)NC(=O)[C@@H](CNC(=O)c1ccc([Si](F)(C(C)(C)C)C(C)(C)C)cc1)NC(=O)[C@@H](CCC(=O)O)NC(=O)CCC(C(=O)O)N1CCN(CC(=O)O)CCN(CC(=O)O)CCN(CC(=O)O)CC1)C(=O)N[C@@H](CC(=O)O)C(=O)N[C@@H](Cc1ccccc1)C(N)=O", "note": "(some centres unmarked) [DOTAGA-MG-SiFA-10, DOTAGA-glu-[dap(SiFA)^1]F11N] ({DOTAGA}-[dE][dDap](Benzoyl(4-SiFtBu2))[dE][dE][dE][dE][dE]AYGW[Nle]DF-NH2)", "values": [{"measurement": "logD7.4 (n ≥ 5), ^177Lu-labeled", "setting": "[1]", "value": "−2.22 ± 0.08"}, {"measurement": "IC50", "setting": "CCK-2R; [2]", "value": "56.8 ± 6.4", "unit": "nM"}]}]}
